Results: article PMC11724075, “Small-molecule-induced ERBB4 activation to treat heart failure” (Nature Communications, 2025)
“And” between values parts separate entries of the source, which are not always exact repeats. Identical values can stand only once.

Tests used:
iAMs = assay: H2O2-induced cell death assay in iAMs (Toxilight), also with LY294002
Procedure: Subsequently, H2O2 (100 µM; Merck, H1009) was added and the cells were incubated for 4 h at 37 °C. All wells contained DMSO at a final concentration of 0.9%. […] After incubation at RT for 5 min, luminescence was measured using the Luminoskan Ascent.

ERBB4/ERBB4 = target: T1, ERBB4/ERBB4 (Homo sapiens, UniProt Q15303); assay: PathHunter U2OS ERBB4/ERBB4 dimerization assay, 96-well dose-response; format: cell-based; conditions: for ERBB4/ERBB4 dimerization signal: relative to signal with 0.1 µM NRG1, single biological replicates; for EC50: Fig. 1 panels b, f-l
T1 construct: host or cells: U2OS (osteosarcoma cells), PathHunter engineered line
T1 sequence (Q15303 26-1308): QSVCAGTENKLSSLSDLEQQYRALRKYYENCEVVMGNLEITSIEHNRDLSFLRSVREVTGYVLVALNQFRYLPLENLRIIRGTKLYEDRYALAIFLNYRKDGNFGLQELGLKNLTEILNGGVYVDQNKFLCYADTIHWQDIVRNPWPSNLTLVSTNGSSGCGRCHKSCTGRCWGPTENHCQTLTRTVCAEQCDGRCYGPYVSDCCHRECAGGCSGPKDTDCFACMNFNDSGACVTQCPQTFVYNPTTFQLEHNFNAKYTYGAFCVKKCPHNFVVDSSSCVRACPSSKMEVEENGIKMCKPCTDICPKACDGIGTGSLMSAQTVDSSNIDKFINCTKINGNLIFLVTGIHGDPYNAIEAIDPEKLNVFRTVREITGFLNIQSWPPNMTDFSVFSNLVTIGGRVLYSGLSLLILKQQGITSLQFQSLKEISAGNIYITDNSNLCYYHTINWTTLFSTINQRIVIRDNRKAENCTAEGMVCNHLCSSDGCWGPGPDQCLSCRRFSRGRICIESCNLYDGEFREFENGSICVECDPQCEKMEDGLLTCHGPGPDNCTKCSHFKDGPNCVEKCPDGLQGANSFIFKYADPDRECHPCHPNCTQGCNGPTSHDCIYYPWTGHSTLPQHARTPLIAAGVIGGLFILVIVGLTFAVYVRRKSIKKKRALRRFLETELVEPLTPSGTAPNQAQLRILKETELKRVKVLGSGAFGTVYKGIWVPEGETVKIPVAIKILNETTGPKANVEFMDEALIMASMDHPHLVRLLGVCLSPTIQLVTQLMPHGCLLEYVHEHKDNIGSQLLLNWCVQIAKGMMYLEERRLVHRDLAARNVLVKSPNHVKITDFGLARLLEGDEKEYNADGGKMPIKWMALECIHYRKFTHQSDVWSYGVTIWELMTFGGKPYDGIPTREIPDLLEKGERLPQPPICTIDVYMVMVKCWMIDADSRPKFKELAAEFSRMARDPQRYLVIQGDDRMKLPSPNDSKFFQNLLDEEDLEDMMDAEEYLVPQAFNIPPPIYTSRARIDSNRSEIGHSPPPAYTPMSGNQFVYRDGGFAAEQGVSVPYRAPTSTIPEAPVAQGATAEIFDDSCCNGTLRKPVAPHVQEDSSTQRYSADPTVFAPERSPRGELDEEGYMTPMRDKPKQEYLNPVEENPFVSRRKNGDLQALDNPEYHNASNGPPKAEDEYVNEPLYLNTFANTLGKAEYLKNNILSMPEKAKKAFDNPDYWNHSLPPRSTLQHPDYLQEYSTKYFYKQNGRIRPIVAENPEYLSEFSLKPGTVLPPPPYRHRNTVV
T1 sequence (Q15303 26-1308): as above
Procedure: PathHunter U2OS ERBB4/ERBB4 (osteosarcoma cells; Eurofins, 93-0961C3), U2OS ERBB2/ERBB4 (osteosarcoma cells; Eurofins, 493-0960C3), ERBB2/ERBB3 (osteosarcoma cells; Eurofins, 93-1042C3) and ERBB1/ERBB1 (osteosarcoma cells; Eurofins, 93-0989C3) dimerization cell lines were cultured according to the manufacturer’s instructions. Briefly, cells were cultured in Cell Culture Reagent 103 (Eurofins, 92-3103 G) supplemented with 250 µg/mL Hygromycin B (Eurofins, 92-0029) and 500 µg/mL G418 (Eurofins, 92-0030), and were maintained at 37 °C in humidified atmosphere of 5% CO2. HCFs (Innoprot, P10454) were cultured in fibroblast medium (Innoprot, P60108) supplemented with 10% (v/v) fetal bovine serum (FBS, Innoprot), 10% (v/v) fibroblast growth supplement (Innoprot), and 1% (v/v) penicillin/streptomycin solution (Innoprot). iAMs[33] (kindly provided by LUMC) were cultured in Advanced DMEM F-12 (Thermo Fisher Scientific, 12634028) supplemented with 2% (v/v) heat-inactivated FBS (Thermo Fisher Scientific, 10270106), 1% (v/v) penicillin/streptomycin (10,000 units/mL and 10 mg/mL respectively, Thermo Fisher Scientific, 15140122), 1× GlutaMAX (Thermo Fisher Scientific, 35050061), and 100 ng/mL doxycycline (Tocris, 4090) for proliferation. To induce differentiation, iAMs were transferred to medium without doxycycline.
U2OS ERBB4/ERBB4 dimerization cells were seeded at a density of 5 × 10^4 cells/well in 100 µL Cell Plating 0 Reagent, in white 96-well plates (PerkinElmer, 6005680) and incubated for 24 h at 37 °C, 5% CO2. […] Next, 110 µL PathHunter Flash Detection Reagent was added to each well and incubated at RT for 1 h after which the luminescence signal was measured using the Luminoskan Ascent (Thermo Fisher Scientific). […] The same experimental set-up was used for the U2OS ERBB2/ERBB4, U2OS ERBB2/ERBB3 and U2OS ERBB1/ERBB1 dimerization cell lines.
Category Parameter Description
Assay Type of assay PathHunter Dimerization assays provide a robust, highly sensitive and easy-to-use cell-based functional assay to study various protein activities in a cell. The assay s use
Enzyme Fragment Complementation technology, where the b-galactosidase (b-gal) enzyme is split into two fragments, ProLink and Enzyme Acceptor. Independently these fragments have no b-gal activity. However, when forced to complement through protein-protein interactions, they form an active b-gal enzyme. The PathHunter Dimerization assay detects ligand induced dimerization of two subunits of a receptor-dimer pair. The cells have been engineered to co-express one receptor subunit (ERBB4) fused to Enzyme
Donor, and a second dimer partner (ERBB4) fused to Enzyme Acceptor. Binding of an agonist to one receptor subunit induces it to interact with its dimer partner, forcing complementation of the two enzyme […]
functional enzyme that hydrolyzes a substrate to generate a chemiluminescent signal.
Target ErbB4 receptor (RTK receptor)
Primary measurement Detection of chemiluminescent signal, induced by small-molecule ErbB4 agonists
Key reagents PathHunter Dimerization ErbB4/ErbB4 Cell
Line (93-0961C3) - PathHunter Flash
Detection Kit (03 -0247) - AssayComplete Cell
AssayComplete Cell Detachment Reagent
(92-0009) - AssayComplete Thawing Reagent
T3 (92-4103TR) - AssayComplete Freezing
Assay protocol https://www.discoverx.com/catalog/pathhun

Row | Structure (SMILES) | total cell death of iAMs (iAMs; 100 µM H2O2) [%] | total cell death of iAMs, validation H2O2 (iAMs; H2O2 vs Vehicle, single replicates) | ERBB4/ERBB4 dimerization signal (ERBB4/ERBB4; 3.125e-8 M) | ERBB4/ERBB4 dimerization signal (ERBB4/ERBB4; 6.25e-8 M) | ERBB4/ERBB4 dimerization signal (ERBB4/ERBB4; 1.25e-7 M) | ERBB4/ERBB4 dimerization signal (ERBB4/ERBB4; 2.5e-7 M) | ERBB4/ERBB4 dimerization signal (ERBB4/ERBB4; 5e-7 M) | ERBB4/ERBB4 dimerization signal (ERBB4/ERBB4; 1e-6 M) | ERBB4/ERBB4 dimerization signal (ERBB4/ERBB4; 2e-6 M) | ERBB4/ERBB4 dimerization signal (ERBB4/ERBB4; 4e-6 M) | ERBB4/ERBB4 dimerization signal (ERBB4/ERBB4; 8e-6 M) | ERBB4/ERBB4 dimerization signal (ERBB4/ERBB4; 1.6e-5 M) | ERBB4/ERBB4 dimerization signal (ERBB4/ERBB4; 3.2e-5 M) | EC50 (ERBB4/ERBB4) [µM] | induction of ERBB4 dimerization (in words) (ERBB4/ERBB4) | total cell death of iAMs (iAMs; H2O2/Veh + LY294002 (20 µM), single replicates) | total cell death of iAMs (iAMs; Veh + LY294002 (20 µM), no H2O2, single replicates) | effect of LY294002 pretreatment on pro-survival effect of EF-1 (in words) (iAMs; iAMs treated with H2O2)
1 | OO [Compound H2O2, hydrogen peroxide, reference compound] | 62 | 48.19 and 54.13 and 68.52 and 60.96 and 64.53 and 71.34 and 65.79 and 69.72 and 69.16 and 66.75 and 64.62 and 50.66 and 53.52 and 64.15 | – | – | – | – | – | – | – | – | – | – | – | – | – | – | – | –
2 | CC(=O)c1ccc(NC(=O)C(C)Sc2nc3ccccc3c(=O)n2C2CCCC2)cc1 (stereo not drawn) [EF-2] | – | – | 0 | 2.15 and 4.6 and 0.468 and 1.148 | 3.45 and 2.29 and 0.641 and 1.187 | 4.04 and 4.36 and 1.213 and -1.342 | 1.37 and 3.12 and 2.49 and 0.6545 | 2.5 and 5.02 and 2.238 and 2.209 | 4.33 and 4.8 and 3.759 and 4.682 | 3.95 and 4.91 and 4.578 and 5.322 | 8.72 and 7.12 and 6.167 and 6.988 | 9.4 and 10.69 and 8.539 and 7.868 | 12.78 and 12.75 and 7.517 and 9.504 | 3.3 | – | – | – | –
3 | CC(Sc1nc2ccccc2c(=O)n1C1CCCC1)C(=O)N(C)c1ccccc1 (stereo not drawn) [EF-3] | – | – | 0 | -1.21 and 2.4 and -0.0725 | -1.21 and 2.26 and 0.6885 | -1.52 and 3.09 and -0.0015 | -1.8 and 4 and -1.488 | -0.91 and 4.12 and -1.3115 | -2.34 and 4.47 and -0.737 | -2.82 and 3.65 and 0.377 | -2.1 and 3.98 and 3.507 | -0.15 and 7.88 and 11.189 | 10.32 and 12.81 and 17.0765 | 15.9 | – | – | – | –
4 | CC(C)n1c(SC(C(=O)NC2CC2)c2ccccc2)nc2sc3c(c2c1=O)CCC3 (stereo not drawn) [EF-4] | – | – | 0 | -0.82 and -1.6 and 0.98 and -1.282 and -1.385 | -1.06 and 0.03 and 3.38 and -1.705 and 1.217 | 0.06 and -1.83 and 3.79 and -0.533 and -0.2429 | 0.37 and -1.62 and 3.34 and -1.138 and -0.1012 | -0.43 and -1.64 and 5.89 and 0.03433 and 4.575 | 0.21 and 0.63 and 6.37 and 2.286 and 6.859 | 2.3 and -0.27 and 8.83 and 5.465 and 8.345 | 3.99 and 2.72 and 14.5 and 12.0003 and 11.0326 | 10.7 (2×) and 28.43 and 14.396 and 16.9022 | 14.22 and 10.37 and 32.96 and 14.248 and 12.7415 | 7.9 | – | – | – | –
5 | O=C1NCCCCC1Sc1nc2sc3c(c2c(=O)n1C1CCCC1)CCCC3 (stereo not drawn) [EF-5] | – | – | 0 | 0.55 and -5.82 and -1.2625 and -2.273 | -0.81 and -3.79 and -1.2155 and 0.9982 | 2.18 and -1.68 and -1.408 and 0.7189 | 0.6 and -0.22 and -2.045 and 0.5619 | 1.62 and -1.86 and -1.923 and 1.909 | 0.85 and -0.68 and -0.804 and 3.362 | 1.61 and 5.16 and 4.378 and 4.178 | 4.54 and 3.781 and 4.611 | 16.34 and 17.63 and 4.256 and 4.3885 | 15.88 and 18.62 and 11.2465 and 8.67 | 6.8 | induced ERBB4 dimerization in a concentration-dependent manner | – | – | –
6 | Cc1sc2nc(SC(C)C(=O)Nc3sccc3C(N)=O)n(CC(C)C)c(=O)c2c1C (stereo not drawn) [EF-6] | – | – | 0 | -10.54 and 0.126 and -1.899 | -0.74 and -11.14 and 0.573 and -2.081 | -11.05 and 1.316 and 0.08162 | -1.14 and -8.91 and 2.656 and 0.4928 | -7.05 and 2.748 and 1.042 | -1.29 and -3.55 and 2.61 and 5.158 | 3.35 and 5.191 and 6.31 | 7.22 and 8.65 and 7.634 and 6.661 | 15.88 and 10.304 and 5.283 | 10.39 and 15.72 and 13.149 and 5.2549 | 7.4 | induced ERBB4 dimerization in a concentration-dependent manner | – | – | –
7 | CC(Sc1nc2ccccc2c(=O)n1C1CCCC1)c1nc2ccccc2n1C(F)F (stereo not drawn) [EF-7] | – | – | 0 | 1.834 and 3.035 and 0.03 and -1.937 | -0.545 and 2.505 and -0.7885 and 2.028 | 4.185 and 4.81 and -0.3825 and 0.1978 | -2.369 and -1.66 and -2.1805 and 0.9417 | -1.082 and -1.615 and -1.204 and 2.348 | -0.26 and -0.926 and -0.8585 and 4.47 | 0.729 and 3.237 and 0.665 and 4.903 | 3.996 and 7.56 and 2.421 and 5.8011 | 6.204 and 12.704 and 5.9735 and 4.731 | 9.166 and 15.395 and 6.6065 and 4.169 | 4.4 | induced ERBB4 dimerization in a concentration-dependent manner | – | – | –
8 | Cc1sc2nc(SCC(=O)NC(C)(C#N)C(C)C)n(C3CCCC3)c(=O)c2c1C (stereo not drawn) [EF-8] | – | – | 0 | -2.398 and 2.948 and -2.16 and -2.631 | -3.058 and 0.945 and -1.747 and 1.488 | -2.005 and -2.555 and -0.053 and 1.532 | -2.09 and -2.305 and 2.13 and 0.7408 | -1.274 and -2.984 and 1.804 and 0.1664 | -1.378 and -1.267 and 1.368 and 2.734 | -1.56 and -0.487 and 3.629 and 7.521 | -0.129 and 2.382 and 5.053 and 7.016 | 5.735 and 10.567 and 10.209 and 8.435 | 13.012 and 24.912 and 17.432 | 14 | induced ERBB4 dimerization in a concentration-dependent manner | – | – | –
9 | O=c1cc(N2CCOCC2)oc2c(-c3ccccc3)cccc12 [LY294002, reference compound] | – | – | – | – | – | – | – | – | – | – | – | – | – | – | – | 32.812 and 23.1247 and 24.542 and 32.4283 | 4.366 and 3.706 and 3.828 and 4.745 | blocked the pro-survival effect of EF-1
